According to the supplement of paper PMC4862054:
Values joined by “and” are separate entries in the source; they are usually repeats but may differ in a detail not shown here. Identical values can stand only once.

Experiments:
Conditions in all cases: incubation time: 72 h
[1] = system: CAL-120; assay: normalised viability (% of control), CellTiter-Blue; higher = more viable cells (about 100 = DMSO control)
Outline: (§1)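 Each value is normalised viability at a single listed concentration of the series. Breast cancer cell lines in 384-well plates were incubated 72 h with compound and read by CellTiter-Blue fluorescence at 560/590 nm, with vehicle set to 100 and a positive kill control to 0 on every plate.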

[2] = system: HCC1937; assay: as above
Outline: as §1

[3] = system: Hs578T; assay: as above
Outline: as §1

[4] = system: MDA-MB-436; assay: as above
Outline: as §1

[5] = system: HDQ-P1; assay: as above
Outline: as §1

[6] = system: HCC1143; assay: as above
Outline: as §1

[7] = system: DU-4475; assay: as above
Outline: as §1

[8] = system: HCC1599; assay: as above
Outline: as §1

[9] = system: CAL-120; assay: drug sensitivity score (DSS), CellTiter-Blue viability (DSS (AUC-based score)); higher = stronger viability inhibition; extreme values may be limits of the assay
Experimental: (§2)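 DSRT with the CellTiter-Blue (resazurin reduction) viability readout, fluorescence 560/590 nm, 72 h incubation. Plates were normalised to DMSO and benzethonium chloride controls. DSS is computed from the area under the fitted dose-response curve (5 or 9 concentrations).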

[10] = system: MDA-MB-231; assay: as above
Experimental: as §2

[11] = system: MFM-223; assay: as above
Experimental: as §2

[12] = system: MDA-MB-453; assay: as above
Experimental: as §2

[13] = system: HCC1937; assay: as above
Experimental: as §2

[14] = system: SK-BR-3; assay: as above
Experimental: as §2

[15] = system: Hs578T; assay: as above
Experimental: as §2

[16] = system: MDA-MB-436; assay: as above
Experimental: as §2

[17] = system: HDQ-P1; assay: as above
Experimental: as §2

[18] = system: BT-549; assay: as above
Experimental: as §2

[19] = system: HCC1143; assay: as above
Experimental: as §2

[20] = system: CAL-85-1; assay: as above
Experimental: as §2

[21] = system: DU-4475; assay: as above
Experimental: as §2

[22] = system: CAL-148; assay: as above
Experimental: as §2

[23] = system: CAL-51; assay: as above
Experimental: as §2

[24] = system: HCC1599; assay: as above
Experimental: as §2

[25] = system: MDA-MB-468; assay: as above
Experimental: as §2

CC(C)(C)NC(=O)[C@H]1CC[C@H]2[C@@H]3CC[C@H]4NC(=O)C=C[C@]4(C)[C@H]3CC[C@]12C [Finasteride]
normalised viability [%]
Conditions	[1]	[2]	[3]	[4]	[5]	[6]	[7]	[8]
3 nM	–	–	–	–	121	–	97.7	–
10 nM	108	107	64.2	91	–	102	–	97.1
30 nM	–	–	–	–	116	–	106	–
100 nM	–	–	–	–	130	–	103	–
1000 nM	108	94.7	108	97.8	–	96.8	–	114
10000 nM	116	106	117	96.3	–	106	–	83.4

Conditions	drug sensitivity score
[9]	0
[10]	0
[11]	1.79
[12]	1.81
[13]	0
[14]	0
[15]	0
[16]	0
[17]	0
[18]	0
[19]	0
[20]	0
[21]	3.01
[22]	1.45
[23]	1.63
[24]	0
[25]	0

Nc1ccn([C@@H]2O[C@H](CO)[C@@H](O)C2(F)F)c(=O)n1 [Gemcitabine]
normalised viability [%]
Conditions	[1]	[2]	[3]	[4]	[5]	[6]	[7]	[8]
0.3 nM	–	–	–	–	110	–	95.1	–
1 nM	107	92.3	106	98.1	–	101	–	99.4
3 nM	–	–	–	–	108	–	88.3	–
10 nM	–	–	–	–	100	–	98.2	–
100 nM	41.6	38.8	62.6	53.1	–	49.7	–	65.9
1000 nM	43	27.9	71.5	52.5	–	45.8	–	25.4

Conditions	drug sensitivity score
[9]	14.7
[10]	7.17
[11]	2.55
[12]	11
[13]	16.2
[14]	13.4
[15]	7.89
[16]	9.62
[17]	0
[18]	6.97
[19]	13.2
[20]	12
[21]	10.7
[22]	16.9
[23]	17.6
[24]	7.74
[25]	16.1

CC(C)C[C@H](NC(=O)[C@@H](COC(C)(C)C)NC(=O)[C@H](Cc1ccc(O)cc1)NC(=O)[C@H](CO)NC(=O)[C@H](Cc1c[nH]c2ccccc12)NC(=O)[C@H](Cc1cnc[nH]1)NC(=O)[C@@H]1CCC(=O)N1)C(=O)N[C@@H](CCCNC(=N)N)C(=O)N1CCC[C@H]1C(=O)NNC(N)=O [Goserelin]
normalised viability [%]
Conditions	[1]	[2]	[3]	[4]	[5]	[6]	[7]	[8]
3 nM	–	–	–	–	104	–	91.4	–
10 nM	96.4	104	105	95.6	–	82.8	–	107
30 nM	–	–	–	–	109	–	84	–
100 nM	–	–	–	–	103	–	111	–
1000 nM	93.1	85.1	98	97.3	–	95	–	83.8
10000 nM	94.4	97.4	104	94	–	89	–	90.2

Conditions	drug sensitivity score
[9]	0
[10]	0
[11]	0
[12]	0
[13]	0
[14]	0
[15]	0
[16]	0
[17]	0
[18]	0
[19]	0
[20]	0
[21]	0
[22]	0
[23]	0
[24]	0
[25]	0

CC(=O)[C@]1(O)Cc2c(O)c3c(c(O)c2[C@@H](O[C@H]2C[C@H](N)[C@H](O)[C@H](C)O2)C1)C(=O)c1ccccc1C3=O [Idarubicin]
normalised viability [%]
Conditions	[1]	[2]	[3]	[4]	[5]	[6]	[7]	[8]
0.3 nM	–	–	–	–	118	–	89.8	–
1 nM	108	90.3	107	113	–	96	–	111
3 nM	–	–	–	–	120	–	90.2	–
10 nM	–	–	–	–	104	–	55.7	–
100 nM	40.7	22.1	57.1	57.5	–	61	–	102
1000 nM	11.1	21.3	5.7	18.8	–	30.1	–	49.2

Conditions	drug sensitivity score
[9]	14.5
[10]	11.9
[11]	6
[12]	4.55
[13]	21.4
[14]	17.7
[15]	11.4
[16]	9.77
[17]	6.33
[18]	11.5
[19]	8.64
[20]	6.93
[21]	18.3
[22]	19.7
[23]	21
[24]	0.917
[25]	14.2

C/C(=C\c1csc(C)n1)[C@@H]1C[C@@H]2O[C@]2(C)CCC[C@H](C)[C@H](O)[C@@H](C)C(=O)C(C)(C)[C@@H](O)CC(=O)N1 [Ixabepilone]
normalised viability [%]
Conditions	[1]	[2]	[3]	[4]	[5]	[6]	[7]	[8]
0.3 nM	–	–	–	–	91.1	–	95.4	–
1 nM	75.6	87.5	107	88.8	–	79.3	–	98.5
3 nM	–	–	–	–	76.4	–	77	–
10 nM	–	–	–	–	95.3	–	92.4	–
100 nM	78.3	89.1	98.8	90.1	–	80.7	–	87.6
1000 nM	50.4	17.2	25	51.7	–	25.6	–	81.2

Conditions	drug sensitivity score
[9]	0.647
[10]	10.5
[11]	2.45
[12]	3.24
[13]	5.41
[14]	3.73
[15]	2.45
[16]	4.17
[17]	0
[18]	3.35
[19]	1.78
[20]	2.08
[21]	2.31
[22]	2.58
[23]	0.607
[24]	1.1
[25]	3.09

C=CCn1c(=O)c2cnc(Nc3ccc(N4CCN(C)CC4)cc3)nc2n1-c1cccc(C(C)(C)O)n1 [MK1775]
normalised viability [%]
Conditions	[1]	[2]	[3]	[4]	[5]	[6]	[7]	[8]
3 nM	–	–	–	–	92.9	–	87.8	–
10 nM	91.2	77.7	111	113	–	109	–	86.4
30 nM	–	–	–	–	98.5	–	98.3	–
100 nM	–	–	–	–	94.4	–	75.7	–
1000 nM	26	34.1	34.4	37	–	55.7	–	59
10000 nM	9.09	27.2	16.2	21.4	–	23.7	–	45.3

Conditions	drug sensitivity score
[9]	16
[10]	15
[11]	12.4
[12]	15.1
[13]	15
[14]	20.4
[15]	14.2
[16]	13.3
[17]	13.6
[18]	13.3
[19]	9.62
[20]	11.1
[21]	15
[22]	18.3
[23]	16.2
[24]	7.82
[25]	11.5

CN(Cc1cnc2nc(N)nc(N)c2n1)c1ccc(C(=O)N[C@@H](CCC(=O)O)C(=O)O)cc1 [Methotrexate]
normalised viability [%]
Conditions	[1]	[2]	[3]	[4]	[5]	[6]	[7]	[8]
3 nM	–	–	–	–	108	–	102	–
10 nM	85.2	86.5	106	111	–	87.8	–	102
30 nM	–	–	–	–	95.5	–	99.3	–
100 nM	–	–	–	–	96	–	101	–
1000 nM	46.9	72.1	86.5	64.4	–	68.9	–	75.6
10000 nM	55	76.1	79.4	93.6	–	65.4	–	103

Conditions	drug sensitivity score
[9]	17.3
[10]	0
[11]	0
[12]	0
[13]	0
[14]	16.2
[15]	4.17
[16]	0
[17]	0
[18]	0
[19]	10.5
[20]	9.69
[21]	0
[22]	9.98
[23]	15.1
[24]	0
[25]	18.6

O=C(CCCCCCC(=O)Nc1ccccc1)NO [Vorinostat]
Conditions	normalised viability
[1], 10 nM	92.3% and 99.7%
[1], 1000 nM	65.1% and 68.3%
[1], 10000 nM	11.5% and 18.7%
[2], 10 nM	73% and 92.4%
[2], 1000 nM	77.7% and 63.4%
[2], 10000 nM	24.6% and 22.7%
[3], 10 nM	111% and 118%
[3], 1000 nM	88.4% and 87%
[3], 10000 nM	12.3% and 11.5%
[4], 10 nM	105% and 104%
[4], 10000 nM	41.3% and 40.6%
[5], 3 nM	99.4% and 88.7%
[5], 30 nM	97.2% and 84.3%
[5], 100 nM	95.6% and 87.5%
[6], 10 nM	86.1% and 105%
[6], 1000 nM	86.9% and 84.5%
[6], 10000 nM	21.4% and 24.2%
[7], 3 nM	108% and 97.7%
[7], 30 nM	104% and 99.7%
[7], 100 nM	99.1% and 94.5%
[8], 10 nM	110% and 97.9%
[8], 1000 nM	85.5% and 99.2%
[8], 10000 nM	20.5%

Conditions	drug sensitivity score
[9]	9.7 and 7.55
[10]	5.31 and 5.33
[11]	7.1 and 6.77
[12]	11.4 and 11.6
[13]	6.22 and 7.75
[14]	14.2 and 12.8
[15]	5.57 and 5.8
[16]	8.55 and 3.68
[17]	3.82 and 8.64
[18]	4.56 and 4.64
[19]	4.79 and 6.75
[20]	4.59 and 3.98
[22]	5.26 and 4.8
[23]	0.68 and 0.982
[24]	6.85 and 2.71
[25]	6.66 and 5.72
